Experiment [1] has as its target T1, MLKL (Homo sapiens, UniProt Q8NB16).
T1 sequence (Q8NB16 1-471): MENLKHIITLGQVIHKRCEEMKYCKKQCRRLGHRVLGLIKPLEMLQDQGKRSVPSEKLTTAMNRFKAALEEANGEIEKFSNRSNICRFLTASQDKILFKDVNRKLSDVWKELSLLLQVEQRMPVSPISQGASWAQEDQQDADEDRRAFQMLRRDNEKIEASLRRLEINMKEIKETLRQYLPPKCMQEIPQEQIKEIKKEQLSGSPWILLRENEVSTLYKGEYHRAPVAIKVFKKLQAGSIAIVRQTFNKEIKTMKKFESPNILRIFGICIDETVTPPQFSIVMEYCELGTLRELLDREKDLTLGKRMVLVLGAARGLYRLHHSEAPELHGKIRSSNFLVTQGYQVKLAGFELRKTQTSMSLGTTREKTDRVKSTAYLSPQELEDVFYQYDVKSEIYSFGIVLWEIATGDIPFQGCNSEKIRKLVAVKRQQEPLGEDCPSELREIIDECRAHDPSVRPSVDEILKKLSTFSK
As to the kind of experiment: Measurement of binding affinity with MLKL receptor (competitive binding assay, Kd). More on the design: made in house; host or cells: HEK 293 cell line (T7 phage in E. coli BL21-derived host is also described). The procedure, abridged:
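MLKL was produced in HEK 293 cells and tagged with DNA for detection. Liganded beads were blocked with excess biotin and washed to cut non-specific binding, then compounds (111× DMSO stocks, 0.9% DMSO in assay) competed for binding. Eluate kinase was measured by qPCR for Kd.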

Experiment [2] has as its target T1, MLKL. As to the kind of experiment: MLKL degradation assay in HepG2 cell line (western blot). In kind it is cell-based. Details: endogenous in cells; host or cells: HepG2 or HaCaT. The following applies: cell line not given; for Degradation assay (Degradation %) 1 μM: compound 1 μM; for Degradation assay (Degradation %) 10 μM: compound 10 μM. In short, it runs like this:
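HepG2 cells were exposed to compound at a final 1 or 10 μM for 20-24 hours at 37 °C, 5% CO2. RIPA lysates were normalized by BCA assay, 10-15 μg protein resolved by SDS-PAGE, and MLKL levels detected by western blot with chemiluminescence.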

The subject of experiment [3] is FADD−/− Jurkat cells. As to the kind of experiment: Necroptosis inhibition assay, TNF-α-induced necroptosis (CellTiter-Glo 2.0). In kind it is cell-based, human. The following applies: TNF-α 15 ng/mL; for Necroptosis inhibition assay (Rescue %) 1 μM: compound 1 μM; for Necroptosis inhibition assay (Rescue %) 10 μM: compound 10 μM. The procedure, abridged:
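Cells at 5.0×10^5 cells/mL were pretreated with compound (final 0.1, 1 and 10 μM) for 30 minutes at room temperature, then given TNF-α at 15 ng/mL final. After 20 to 24 hours at 37° C, 5% CO2, viability was read as ATP luminescence to calculate cytotoxicity and necroptosis inhibition rate.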

In experiment [1], `Nc1ncc(-c2cnn(C3CCN(C(=O)CCC4CCN(C(=O)CC5CCN(c6ccc7c(c6)C(=O)N(C6CCC(=O)NC6=O)C7=O)CC5)CC4)CC3)c2)nc1C(=O)O[C@@H](C(=O)Nc1ccc(F)cc1)c1ccccc1` (stereo partly drawn) [TDH-430, (R)-2-((4-fluorophenyl)amino)-2-oxo-1-phenylethyl 3-amino-6-(1-(1-(3-(1-(2-(1-(2-(2,6-dioxopiperidin-3-yl)-1,3-dioxoisoindolin-5-yl)piperidin-4-yl)acetyl)piperidin-4-yl)propanoyl)piperidin-4-yl)-1H-pyrazol-4-yl)pyrazine-2-carboxylate] registered a Kd of 2.2 nM. In experiment [2], the “Degradation assay (Degradation %) 1 μM” value turned out to be 65.96% and the “Degradation assay (Degradation %) 10 μM” value is 36.66%. Also, in experiment [3] (FADD−/− Jurkat cells), the “Necroptosis inhibition assay (Rescue %) 1 μM” value worked out at 15.88% and the “Necroptosis inhibition assay (Rescue %) 10 μM” value is reported as 14.13%.
On the same counts, the results for `Nc1ncc(-c2cnn(C3CCN(CCOC4CCN(C(=O)C5CCN(C6=CC(=O)N(C7CCC(=O)NC7=O)C6=O)CC5)CC4)CC3)c2)nc1C(=O)O[C@@H](C(=O)Nc1ccc(F)cc1)c1ccccc1` (stereo partly drawn) [TDH-529, (R)-2-((4-fluorophenyl)amino)-2-oxo-1-phenylethyl 3-amino-6-(1-(1-(2-((1-(1-(1-(2,6-dioxopiperidin-3-yl)-2,5-dioxo-2,5-dihydro-1H-pyrrol-3-yl)piperidine-4-carbonyl)piperidin-4-yl)oxy)ethyl)piperidin-4-yl)-1H-pyrazol-4-yl)pyrazine-2-carboxylate] are 0.25 nM, 24.89%, 66.48%, 36.72% and 15.86%.
Compound `Nc1ncc(-c2cnn(C3CCN(CCCCCCCCCCNC(=O)C4CCN(c5ccc6c(c5)C(=O)N(C5CCC(=O)NC5=O)C6=O)CC4)CC3)c2)nc1C(=O)O[C@@H](C(=O)Nc1ccc(F)cc1)c1ccccc1` (stereo partly drawn) [TDH-157, (R)-2-((4-fluorophenyl)amino)-2-oxo-1-phenylethyl 3-amino-6-(1-(1-(10-(1-(2-(2,6-dioxopiperidin-3-yl)-1,3-dioxoisoindolin-5-yl)piperidine-4-carboxamido)decyl)piperidin-4-yl)-1H-pyrazol-4-yl)pyrazine-2-carboxylate] showed a Kd in experiment [1] of 47 nM. For the same compound, in experiment [2], the “Degradation assay (Degradation %) 1 μM” value turned out to be 62.45% and the “Degradation assay (Degradation %) 10 μM” value turned out to be 64.73%. In addition, in experiment [3], the “Necroptosis inhibition assay (Rescue %) 1 μM” value is 37.7% and the “Necroptosis inhibition assay (Rescue %) 10 μM” value is 45.37%.
`Nc1ncc(-c2cnn(C3CCN(CCCC4CCN(C(=O)CCc5ccc6c(c5)C(=O)N(C5CCC(=O)NC5=O)C6=O)CC4)CC3)c2)nc1C(=O)O[C@@H](C(=O)Nc1ccc(F)cc1)c1ccccc1` (stereo partly drawn) [TDH-484, (R)-2-((4-fluorophenyl)amino)-2-oxo-1-phenylethyl 3-amino-6-(1-(1-(3-(1-(3-(2-(2,6-dioxopiperidin-3-yl)-1,3-dioxoisoindolin-5-yl)propanoyl)piperidin-4-yl)propyl)piperidin-4-yl)-1H-pyrazol-4-yl)pyrazine-2-carboxylate] showed a Kd in experiment [1] of 0.92 nM. Moreover, in experiment [2], the “Degradation assay (Degradation %) 1 μM” value was determined as 89.17% and the “Degradation assay (Degradation %) 10 μM” value worked out at 91.3%. Also, in experiment [3] (FADD−/− Jurkat cells), the “Necroptosis inhibition assay (Rescue %) 1 μM” value amounted to 66.68% and the “Necroptosis inhibition assay (Rescue %) 10 μM” value is given as 37.9%.
In experiment [1], `Nc1ncc(-c2cnn(C3CCN(CC4CCN(C(=O)C5CN(c6ccc7nnn(C8CCC(=O)NC8=O)c(=O)c7c6)C5)CC4)CC3)c2)nc1C(=O)O[C@@H](C(=O)Nc1ccc(F)cc1)c1ccccc1` (stereo partly drawn) [TDH-170, (R)-2-((4-fluorophenyl)amino)-2-oxo-1-phenylethyl 3-amino-6-(1-(1-((1-(1-(3-(2,6-dioxopiperidin-3-yl)-4-oxo-3,4-dihydrobenzo[d][1,2,3]triazin-6-yl)azetidine-3-carbonyl)piperidin-4-yl)methyl)piperidin-4-yl)-1H-pyrazol-4-yl)pyrazine-2-carboxylate] gave a Kd of 4.6 nM. In addition, in experiment [2], the “Degradation assay (Degradation %) 1 μM” value was determined as 60.57% and the “Degradation assay (Degradation %) 10 μM” value was 58.27%. In addition, in experiment [3], the “Necroptosis inhibition assay (Rescue %) 1 μM” value stood at 44.08% and the “Necroptosis inhibition assay (Rescue %) 10 μM” value turned out to be 23.26%.
Consider `Nc1ncc(-c2cnn(C3CCN(CCC4CCN(c5cc6c(cc5F)C(=O)N(C5CCC(=O)NC5=O)C6=O)CC4)CC3)c2)nc1C(=O)O[C@@H](C(=O)Nc1ccc(F)cc1)c1ccccc1` (stereo partly drawn) [TDH-520, (R)-2-((4-fluorophenyl)amino)-2-oxo-1-phenylethyl 3-amino-6-(1-(1-(2-(1-(2-(2,6-dioxopiperidin-3-yl)-6-fluoro-1,3-dioxoisoindolin-5-yl)piperidin-4-yl)ethyl)piperidin-4-yl)-1H-pyrazol-4-yl)pyrazine-2-carboxylate], for which, in experiment [1], the Kd was determined as 19 nM. In addition, in experiment [2], the “Degradation assay (Degradation %) 1 μM” value came to 92.44% and the “Degradation assay (Degradation %) 10 μM” value amounted to 94.32%. Further, in experiment [3] (FADD−/− Jurkat cells), the “Necroptosis inhibition assay (Rescue %) 1 μM” value is reported as 63.56% and the “Necroptosis inhibition assay (Rescue %) 10 μM” value is reported as 36.11%.
For `Nc1ncc(-c2cnn(C3CCN(CCCCCCCCCCNC(=O)CNc4ccc5nnn(C6CCC(=O)NC6=O)c(=O)c5c4)CC3)c2)nc1C(=O)O[C@@H](C(=O)Nc1ccc(F)cc1)c1ccccc1` (stereo partly drawn) [TDH-173, (R)-2-((4-fluorophenyl)amino)-2-oxo-1-phenylethyl 3-amino-6-(1-(1-(10-(2-((3-(2,6-dioxopiperidin-3-yl)-4-oxo-3,4-dihydrobenzo[d][1,2,3]triazin-6-yl)amino)acetamido)decyl)piperidin-4-yl)-1H-pyrazol-4-yl)pyrazine-2-carboxylate], the Kd in experiment [1] was found to be 17 nM. In experiment [2], the “Degradation assay (Degradation %) 1 μM” value was 61.08% and the “Degradation assay (Degradation %) 10 μM” value worked out at 75.11%. Moreover, in experiment [3], the “Necroptosis inhibition assay (Rescue %) 1 μM” value came out at 47.27% and the “Necroptosis inhibition assay (Rescue %) 10 μM” value was found to be 35.55%.
On the same counts, the results for `Nc1ncc(-c2cnn(C3CCN(CC4CCN(C(=O)C5CCN(c6cccc7c6C(=O)N(C6CCC(=O)NC6=O)C7=O)CC5)CC4)CC3)c2)nc1C(=O)O[C@@H](C(=O)Nc1ccc(F)cc1)c1ccccc1` (stereo partly drawn) [TDH-146, (R)-2-((4-fluorophenyl)amino)-2-oxo-1-phenylethyl 3-amino-6-(1-(1-((1-(1-(2-(2,6-dioxopiperidin-3-yl)-1,3-dioxoisoindolin-4-yl)piperidine-4-carbonyl)piperidin-4-yl)methyl)piperidin-4-yl)-1H-pyrazol-4-yl)pyrazine-2-carboxylate] are 5.4 nM, 65.04%, 60.65%, 42.2% and 9.61%.
For `Nc1ncc(-c2cnn(C3CCN(CC4CCN(CC(=O)N5CCN(c6cccc7c6C(=O)N(C6CCC(=O)NC6=O)C7=O)CC5)CC4)CC3)c2)nc1C(=O)OC(C(=O)Nc1ccc(F)cc1)c1ccccc1` (centres unmarked) [TDH-237, 2-((4-fluorophenyl)amino)-2-oxo-1-phenylethyl 3-amino-6-(1-(1-((1-(2-(4-(2-(2,6-dioxopiperidin-3-yl)-1,3-dioxoisoindolin-4-yl)piperazin-1-yl)-2-oxoethyl)piperidin-4-yl)methyl)piperidin-4-yl)-1H-pyrazol-4-yl)pyrazine-2-carboxylate], in experiment [1], the Kd was 1.8 nM. In experiment [2], the “Degradation assay (Degradation %) 1 μM” value is given as 56.98% and the “Degradation assay (Degradation %) 10 μM” value amounted to 65.18%. In experiment [3], the “Necroptosis inhibition assay (Rescue %) 1 μM” value is reported as 67.77% and the “Necroptosis inhibition assay (Rescue %) 10 μM” value is listed as 34.51%.
In experiment [1], `Nc1ncc(-c2cnn(C3CCN(CC4CCN(C(=O)COc5ccc6c(c5)C(=O)N(C5CCC(=O)NC5=O)C6=O)CC4)CC3)c2)nc1C(=O)O[C@@H](C(=O)Nc1ccc(F)cc1)c1ccccc1` (stereo partly drawn) [TDH-171, (R)-2-((4-fluorophenyl)amino)-2-oxo-1-phenylethyl 3-amino-6-(1-(1-((1-(2-((2-(2,6-dioxopiperidin-3-yl)-1,3-dioxoisoindolin-5-yl)oxy)acetyl)piperidin-4-yl)methyl)piperidin-4-yl)-1H-pyrazol-4-yl)pyrazine-2-carboxylate] had a Kd of 2.3 nM. Further, in experiment [2], the “Degradation assay (Degradation %) 1 μM” value stood at 64.64% and the “Degradation assay (Degradation %) 10 μM” value came to 64.5%. Also, in experiment [3], the “Necroptosis inhibition assay (Rescue %) 1 μM” value came out at 93.81% and the “Necroptosis inhibition assay (Rescue %) 10 μM” value amounted to 65.91%.

(Values after patent US20240252488A1 (KOREA RESEARCH INSTITUTE OF CHEMICAL TECHNOLOGY, priority 2020, published 2024).)
